Patent publication US10188634B2, “3-(3H-imidazo[4,5-C]pyridin-2-yl)-1 H-pyrazolo[4,3-B]pyridines and therapeutic uses thereof” (Samumed, LLC, priority 2015, dated 2019)

Key:
SW480 colon cancer cells = assay: Cell viability assay (CellTiter-Blue) in SW480 colon cancer cells; type: cell-based; conditions: Homo sapiens, 96 h; for inhibition at 10 µM: four days, CellTiter-Blue, read-out: percent inhibition at 10 μM (given for EC50 of >10 μM); for EC50: four days incubation, CellTiter-Blue cell viability
Method: Representative compounds were screened using the following assay procedure to assess the effect on cell viability as described below.
Each compound was dissolved in DMSO as a 10 mM stock and used to prepare compound source plates. Serial dilution (1:3, 8-point dose-response curves from 10 μM to 0.004 μM) and compound transfer was performed using the ECHO 550 (Labcyte, Sunnyvale, Calif.) into 96-well clear bottom, black-walled plates (Corning-Costar).
Approximately 2×10^3 SW480 colon cancer cells were seeded into each well and allowed to incubate in the presence or absence of compound for four days at 37° C./5% CO2. Eight replicates of DMSO-treated cells served as controls and cells treated with compound were performed in duplicate.
After incubation, 20 μL of CellTiter-Blue (Promega) was added to each well allowed to incubate for approximately 3 hours. This reagent was a buffered solution which contains resazurin, metabolically active cells were able to reduce rezarurin (blue) into resorufin (pink) which was highly fluorescent. This measured fluorescence was used as a readout for cell viability.
After incubation, the plates were read at Ex 560 nm Em 590 nm (Cytation 3, BioTek). Dose-response curves were generated and EC50 concentration values were calculated using non-linear regression curve fit in the GraphPad Prism (San Diego, Calif.) or Dotmatics' Studies Software (Bishops Stortford, UK). For EC50 of >10 μM, the percent inhibition at 10 μM is provided.

[1] = test system: LL29 cells (primary human fibroblasts derived from IPF patients) treated with TGF-β1, α-smooth muscle actin; assay: Inhibition of the fibrotic process: αSMA staining in TGF-β1 treated primary human fibroblasts from IPF patients (LL29 cells); type: cell-based; conditions: Fibroblast, 96 h; for EC50: LL29 cells treated with TGF-β1 (20 ng/mL), 4 days; for inhibition at 10 µM: LL29 cells treated with TGF-β1, 4 days, read-out: percent inhibition in brackets (given for EC50 >10 μM)
Description: Representative compounds were screened using primary human fibroblasts (derived from IPF patients) treated with TGF-β1 to determine their ability to inhibit the fibrotic process.
Human Fibroblast Cell Culture: Primary human fibroblasts derived from IPF patients (LL29 cells) [^1Xiaoqiu Liu, et.al., “Fibrotic Lung Fibroblasts Show Blunted Inhibition by cAMP Due to Deficient cAMP Response Element-Binding Protein Phosphorylation”, Journal of Pharmacology and Experimental Therapeutics (2005), 315(2), 678-687; ^2Watts, K. L., et.al., “RhoA signaling modulates cyclin D1 expression in human lung fibroblasts; implications for idiopathic pulmonary fibrosis”, Respiratory Research (2006), 7(1), 88] were obtained from American Type Culture Collection (ATCC) and expanded in F12 medium supplemented with 15% Fetal Bovine Serum and Penicillin/Streptomycin.
Compound Screening: Each compound was dissolved in DMSO as a 10 mM stock and used to prepare compound source plates. […] LL29 cells are plated at 1,500 cells/well in 80 μL/well F12 medium supplemented with 1% Fetal Bovine Serum. One hour after addition of the cells, TGF-β1 (Peprotech; 20 ng/mL) was added to the plates to induce fibrosis (ref. 1 and 2 above). Wells treated with TGF-β1 and containing DMSO were used as controls. Cells were incubated at 37° C. and 5% CO2 for 4 days. Following incubation for 4 days, SYTOX green nucleic acid stain (Life Technologies [Thermo Fisher Scientific]) was added to the wells at a final concentration of 1 μM and incubated at room temperature for 30 min. Cells were then fixed using 4% formaldehyde (Electron Microscopy Sciences), washed 3 times with PBS followed by blocking and permeabilization using 3% Bovine Serum Albumin (BSA; Sigma) and 0.3% Triton X-100 (Sigma) in PBS. Cells were then stained with antibody specific to α-smooth muscle actin (αSMA; Abcam) (ref. 1 and 2 above) in 3% Bovine Serum Albumin (BSA; Sigma) and 0.3% Triton X-100 (Sigma) in PBS, and incubated overnight at 4° C. Cells were then washed 3 times with PBS, followed by incubation with Alexa Flor-647 conjugated secondary antibody (Life Technologies [Thermo Fisher Scientific]) and DAPI at room temperature for 1 hour. Cells were then washed 3 times with PBS and plates were sealed for imaging. αSMA staining was imaged by excitation at 630 nm and emission at 665 nm and quantified using the Compartmental Analysis program on the CellInsight CX5 (Thermo Scientific). Dead or apoptotic cells were excluded from analysis based on positive SYTOX green staining. % of total cells positive for αSMA were counted in each well and normalized to the average of 11 wells treated with TGF-β1 on the same plate using Dotmatics' Studies Software. The normalized averages (fold change over untreated) of 3 replicate wells for each compound concentration were used to create dose-responses curves and EC50 values were calculated using non-linear regression curve fit in the Dotmatics' Studies Software. For EC50 of >10 μM, the percent inhibition at 10 μM is provided.

CCC(=O)Nc1cncc(-c2ccc3[nH]nc(-c4nc5c(-c6cccc(F)c6)cncc5[nH]4)c3n2)c1 [Compound 1, N-(5-(3-(7-(3-Fluorophenyl)-3H-imidazo[4,5-c]pyridin-2-yl)-1H-pyrazolo[4,3-b]pyridin-5-yl)pyridin-3-yl)propionamide]
inhibition at 10 µM (SW480 colon cancer cells): 0% | EC50 (SW480 colon cancer cells): > 10 µM | EC50 [1]: > 10 µM | inhibition at 10 µM [1]: 0%

CC(C)CC(=O)Nc1cncc(-c2ccc3[nH]nc(-c4nc5c(-c6cccc(F)c6)cncc5[nH]4)c3n2)c1 [Compound 2, N-(5-(3-(7-(3-Fluorophenyl)-3H-imidazo[4,5-c]pyridin-2-yl)-1H-pyrazolo[4,3-b]pyridin-5-yl)pyridin-3-yl)-3-methylbutanamide]
inhibition at 10 µM (SW480 colon cancer cells): 0% | EC50 (SW480 colon cancer cells): > 10 µM | EC50 [1]: 4.09 µM

Fc1cccc(-c2cncc3[nH]c(-c4n[nH]c5ccc(-c6ccncc6)nc45)nc23)c1 [Compound 18, 3-(7-(3-Fluorophenyl)-3H-imidazo[4,5-c]pyridin-2-yl)-5-(pyridin-4-yl)-1H-pyrazolo[4,3-b]pyridine]
inhibition at 10 µM (SW480 colon cancer cells): 6.5% | EC50 (SW480 colon cancer cells): > 10 µM | EC50 [1]: > 10 µM | inhibition at 10 µM [1]: 0%

O=C(Nc1cncc(-c2ccc3[nH]nc(-c4nc5c(-c6ccc(F)cc6)cncc5[nH]4)c3n2)c1)C1CCC1 [Compound 49, N-(5-(3-(7-(4-Fluorophenyl)-3H-imidazo[4,5-c]pyridin-2-yl)-1H-pyrazolo[4,3-b]pyridin-5-yl)pyridin-3-yl)cyclobutanecarboxamide]
EC50 (SW480 colon cancer cells): 8.68 µM | EC50 [1]: 3.23 µM

Fc1ccc(-c2cncc3[nH]c(-c4n[nH]c5ccc(-c6cncnc6)nc45)nc23)cc1 [Compound 55, 3-(7-(4-Fluorophenyl)-3H-imidazo[4,5-c]pyridin-2-yl)-5-(pyrimidin-5-yl)-1H-pyrazolo[4,3-b]pyridine]
inhibition at 10 µM (SW480 colon cancer cells): 0% | EC50 (SW480 colon cancer cells): > 10 µM | EC50 [1]: > 10 µM | inhibition at 10 µM [1]: 21.4%

Nc1cncc(-c2ccc3[nH]nc(-c4nc5c(-c6ccccc6F)cncc5[nH]4)c3n2)c1 [Compound 59, 5-(3-(7-(2-Fluorophenyl)-3H-imidazo[4,5-c]pyridin-2-yl)-1H-pyrazolo[4,3-b]pyridin-5-yl)pyridin-3-amine]
inhibition at 10 µM (SW480 colon cancer cells): 0% | EC50 (SW480 colon cancer cells): > 10 µM | EC50 [1]: 3.4 µM

CC(C)C(=O)Nc1cncc(-c2ccc3[nH]nc(-c4nc5c(-c6ccccc6F)cncc5[nH]4)c3n2)c1 [Compound 65, N-(5-(3-(7-(2-fluorophenyl)-3H-imidazo[4,5-c]pyridin-2-yl)-1H-pyrazolo[4,3-b]pyridin-5-yl)pyridin-3-yl)isobutyramide]
inhibition at 10 µM (SW480 colon cancer cells): 0% | EC50 (SW480 colon cancer cells): > 10 µM | EC50 [1]: > 10 µM | inhibition at 10 µM [1]: 1.9%

CC(C)(C)CC(=O)Nc1cncc(-c2ccc3[nH]nc(-c4nc5c(-c6ccccc6F)cncc5[nH]4)c3n2)c1 [Compound 72, N-(5-(3-(7-(2-fluorophenyl)-3H-imidazo[4,5-c]pyridin-2-yl)-1H-pyrazolo[4,3-b]pyridin-5-yl)pyridin-3-yl)-3,3-dimethylbutanamide]
inhibition at 10 µM (SW480 colon cancer cells): 9.8% | EC50 (SW480 colon cancer cells): > 10 µM | EC50 [1]: > 10 µM | inhibition at 10 µM [1]: 0%

O=C(Nc1cncc(-c2ccc3[nH]nc(-c4nc5c(-c6ccccc6F)cncc5[nH]4)c3n2)c1)C1CCCC1 [Compound 78, N-(5-(3-(7-(2-Fluorophenyl)-3H-imidazo[4,5-c]pyridin-2-yl)-1H-pyrazolo[4,3-b]pyridin-5-yl)pyridin-3-yl)cyclopentanecarboxamide]
EC50 (SW480 colon cancer cells): 8.9 µM | EC50 [1]: 9.08 µM

c1cncc(-c2ccc3[nH]nc(-c4nc5c(-c6cccnc6)cncc5[nH]4)c3n2)c1 [Compound 88, 5-(Pyridin-3-yl)-3-(7-(pyridin-3-yl)-3H-imidazo[4,5-c]pyridin-2-yl)-1H-pyrazolo[4,3-b]pyridine]
inhibition at 10 µM (SW480 colon cancer cells): 7.1% | EC50 (SW480 colon cancer cells): > 10 µM | EC50 [1]: 4.96 µM

CC(C)C(=O)Nc1cncc(-c2ccc3[nH]nc(-c4nc5c(-c6cccnc6)cncc5[nH]4)c3n2)c1 [Compound 93, N-(5-(3-(7-(Pyridin-3-yl)-3H-imidazo[4,5-c]pyridin-2-yl)-1H-pyrazolo[4,3-b]pyridin-5-yl)pyridin-3-yl)isobutyramide]
inhibition at 10 µM (SW480 colon cancer cells): 6.3% | EC50 (SW480 colon cancer cells): > 10 µM | EC50 [1]: > 10 µM | inhibition at 10 µM [1]: 12.2%

c1ccc(CNCc2cncc(-c3ccc4[nH]nc(-c5nc6c(-c7cccnc7)cncc6[nH]5)c4n3)c2)cc1 [Compound 108, N-Benzyl-1-(5-(3-(7-(pyridin-3-yl)-3H-imidazo[4,5-c]pyridin-2-yl)-1H-pyrazolo[4,3-b]pyridin-5-yl)pyridin-3-yl)methanamine]
inhibition at 10 µM (SW480 colon cancer cells): 0% | EC50 (SW480 colon cancer cells): > 10 µM | EC50 [1]: > 10 µM | inhibition at 10 µM [1]: 0%

Cc1ccncc1-c1ccc2[nH]nc(-c3nc4c(-c5ccncc5)cncc4[nH]3)c2n1 [Compound 117, 5-(4-Methylpyridin-3-yl)-3-(7-(pyridin-4-yl)-3H-imidazo[4,5-c]pyridin-2-yl)-1H-pyrazolo[4,3-b]pyridine]
inhibition at 10 µM (SW480 colon cancer cells): 2.8% | EC50 (SW480 colon cancer cells): > 10 µM | EC50 [1]: > 10 µM | inhibition at 10 µM [1]: 0%

CCCC(=O)Nc1cncc(-c2ccc3[nH]nc(-c4nc5c(-c6ccncc6)cncc5[nH]4)c3n2)c1 [Compound 129, N-(5-(3-(7-(Pyridin-4-yl)-3H-imidazo[4,5-c]pyridin-2-yl)-1H-pyrazolo[4,3-b]pyridin-5-yl)pyridin-3-yl)butyramide]
inhibition at 10 µM (SW480 colon cancer cells): 2.8% | EC50 (SW480 colon cancer cells): > 10 µM | EC50 [1]: > 10 µM | inhibition at 10 µM [1]: 0%

c1cc(-c2ccc3[nH]nc(-c4nc5c(-c6ccncc6)cncc5[nH]4)c3n2)ccn1 [Compound 130, 5-(pyridin-4-yl)-3-(7-(pyridin-4-yl)-3H-imidazo[4,5-c]pyridin-2-yl)-1H-pyrazolo[4,3-b]pyridine]
inhibition at 10 µM (SW480 colon cancer cells): 0% | EC50 (SW480 colon cancer cells): > 10 µM | EC50 [1]: > 10 µM | inhibition at 10 µM [1]: 11%

O=C(Nc1cncc(-c2ccc3[nH]nc(-c4nc5c(-c6ccncc6)cncc5[nH]4)c3n2)c1)C1CCCCC1 [Compound 135, N-(5-(3-(7-(pyridin-4-yl)-3H-imidazo[4,5-c]pyridin-2-yl)-1H-pyrazolo[4,3-b]pyridin-5-yl)pyridin-3-yl)cyclohexanecarboxamide]
inhibition at 10 µM (SW480 colon cancer cells): 1.4% | EC50 (SW480 colon cancer cells): > 10 µM | EC50 [1]: > 10 µM | inhibition at 10 µM [1]: 0%

CCNCc1cncc(-c2ccc3[nH]nc(-c4nc5c(-c6ccccn6)cncc5[nH]4)c3n2)c1 [Compound 146, N-((5-(3-(7-(Pyridin-2-yl)-3H-imidazo[4,5-c]pyridin-2-yl)-1H-pyrazolo[4,3-b]pyridin-5-yl)pyridin-3-yl)methyl)ethanamine]
inhibition at 10 µM (SW480 colon cancer cells): 26.9% | EC50 (SW480 colon cancer cells): > 10 µM | EC50 [1]: 1.86 µM

O=C(Nc1cncc(-c2ccc3[nH]nc(-c4nc5c(-c6ccccn6)cncc5[nH]4)c3n2)c1)c1ccccc1 [Compound 151, N-(5-(3-(7-(Pyridin-2-yl)-3H-imidazo[4,5-c]pyridin-2-yl)-1H-pyrazolo[4,3-b]pyridin-5-yl)pyridin-3-yl)benzamide]
inhibition at 10 µM (SW480 colon cancer cells): 16.9% | EC50 (SW480 colon cancer cells): > 10 µM | EC50 [1]: > 10 µM | inhibition at 10 µM [1]: 38.8%
